Test results as given in US4199512A, “Compounds for alleviating hypertension” (E. R. Squibb & Sons, Inc., priority 1978, dated 1980).

Legend:
[1] = tested on: angiotensin I converting enzyme in excised guinea pig ileum; experiment: Inhibition of angiotensin I converting enzyme in excised guinea pig ileum (contractile activity of angiotensin I); conditions: Krebs solution at 37°; angiotensin I 25 ng/ml
Protocol: The procedure for evaluating the inhibition of angiotensin I converting enzyme in excised guinea pig ileum is carried out as follows: varying concentrations of the compound are added to an excised guinea pig ileum bath in Krebs solution at 37°, aerated with a mixture of 95% O2 -5% CO2. After two minutes, angiotensin I (25 ng/ml) is added and the isotonic […] are measured. The concentration of representative compounds of the present invention (in micrograms/ml) which inhibit the contractile activity of angiotensin I by 50% (IC50) are shown in the following table: […]

[2] = molecular target: T1, angiotensin converting enzyme (Oryctolagus cuniculus, UniProt P12822); experiment: Inhibition of isolated angiotensin-converting enzyme of rabbit lung (cleavage of hippuryl-L-histidyl-L-leucine); format: biochemical; design: isolated angiotensin converting enzyme from rabbit lungs; from tissue; host or cells: rabbit lung; conditions: 5 mM hippuryl-L-histidyl-L-leucine; pH 8.3; 30 minutes at 37° C.; read-out: I50 (50% inhibition of angiotensin-converting enzyme) (converted)
T1 sequence (P12822 34-1310): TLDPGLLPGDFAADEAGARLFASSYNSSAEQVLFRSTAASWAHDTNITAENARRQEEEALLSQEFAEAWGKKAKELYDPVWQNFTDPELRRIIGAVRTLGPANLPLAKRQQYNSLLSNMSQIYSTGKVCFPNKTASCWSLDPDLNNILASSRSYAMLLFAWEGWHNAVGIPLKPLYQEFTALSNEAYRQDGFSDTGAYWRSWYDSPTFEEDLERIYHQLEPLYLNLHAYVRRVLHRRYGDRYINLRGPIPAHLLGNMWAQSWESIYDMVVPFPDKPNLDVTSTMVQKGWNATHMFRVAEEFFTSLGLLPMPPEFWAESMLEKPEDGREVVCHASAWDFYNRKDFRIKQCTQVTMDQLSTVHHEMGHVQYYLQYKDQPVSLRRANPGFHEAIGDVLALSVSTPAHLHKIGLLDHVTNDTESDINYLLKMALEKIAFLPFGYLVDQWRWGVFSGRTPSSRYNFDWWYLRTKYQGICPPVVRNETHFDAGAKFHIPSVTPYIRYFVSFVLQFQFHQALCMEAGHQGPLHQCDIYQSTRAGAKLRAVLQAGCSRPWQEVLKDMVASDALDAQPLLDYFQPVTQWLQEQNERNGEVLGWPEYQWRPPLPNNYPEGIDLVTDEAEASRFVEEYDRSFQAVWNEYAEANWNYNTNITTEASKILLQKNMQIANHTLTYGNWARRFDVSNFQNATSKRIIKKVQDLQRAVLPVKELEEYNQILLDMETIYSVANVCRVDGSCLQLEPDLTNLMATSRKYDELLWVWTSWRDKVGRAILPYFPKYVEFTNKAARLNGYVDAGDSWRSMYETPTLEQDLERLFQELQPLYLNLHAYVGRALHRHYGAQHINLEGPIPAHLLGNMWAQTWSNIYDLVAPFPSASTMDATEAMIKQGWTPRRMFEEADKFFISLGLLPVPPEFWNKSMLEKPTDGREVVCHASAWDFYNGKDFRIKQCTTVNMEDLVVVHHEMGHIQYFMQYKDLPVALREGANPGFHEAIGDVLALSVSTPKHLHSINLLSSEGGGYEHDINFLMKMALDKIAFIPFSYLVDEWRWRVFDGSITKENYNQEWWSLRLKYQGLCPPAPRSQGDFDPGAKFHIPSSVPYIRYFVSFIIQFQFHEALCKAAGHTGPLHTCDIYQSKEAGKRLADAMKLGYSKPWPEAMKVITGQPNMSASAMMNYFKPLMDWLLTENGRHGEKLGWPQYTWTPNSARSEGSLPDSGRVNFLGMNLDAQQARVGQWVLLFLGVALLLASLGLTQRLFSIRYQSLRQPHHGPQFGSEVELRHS
Description: Although conversion of angiotensin I to angiotensin II by angiotensin-converting enzyme is probably the reaction of most importance in the pathology of hypertension, the activity of the isolated enzyme is more conveniently and accurately assayed by measuring its rate of cleavage of a simpler peptide substrate, hippuryl-L-histidyl-L-leucine. For determination of I50 values (concentrations of compounds expressed in micrograms/ml producing a 50% inhibition of angiotensin-converting enzyme) various concentrations of each compound are added to 13×100 mm tubes along with the following components at the indicated final concentrations in a final volume of 0.25 ml: 100 mM potassium phosphate buffer, pH 8.3; 300 mM sodium chloride; 5 mM hippuryl-L-histidyl-L-leucine; and 5 milliunits of angiotensin-converting enzyme of rabbit lung. Controls containing no inhibitor (100% activity), and those acidified before addition of the enzyme (0% activity) are similarly prepared. All of the enzymatic reactions are initiated by addition of the enzyme component; tubes are incubated for 30 minutes at 37° C.; and reactions are terminated by addition of 0.25 ml. of 1 N HCl. The hippuric acid formed by action of angiotensin-converting enzyme on hippuryl-L-histidyl-L-leucine is extracted into ethyl acetate, evaporated to dryness, redissolved in water and quantitated from its absorbance at 228 nm. The percent inhibition by each concentration of compound is calculated by comparison with the 0% and 100% activity controls. The concentrations of representative compounds of the present invention which inhibit activity of angiotensin-converting enzyme by 50% are shown in the following table: […]

[3] = tested on: angiotensin I pressor response; experiment: Inhibition of angiotensin I pressor response in unanesthetized rats, oral; format: in vivo, rat (male, Sprague-Dawley); conditions: angiotensin I 0.31 μg/kg, 2 animals
Protocol: Representative compounds of the present invention are administered orally to unanesthetized male rats of the Sprague-Dawley strain, weighing about 200 g., followed by an injection of 0.31 μg/kg of angiotensin I. The following table indicates the degree of inhibition obtained.

[4] = tested on: 2-kidney Goldblatt renal hypertensive rat; experiment: Mean blood pressure in 2-kidney Goldblatt renal hypertensive rat, oral; format: in vivo, rat (male, CF Nelson); conditions: second dosage day, 300 mg oral
Description: Male rats of the CF Nelson strain are anesthetized with ether and each left renal artery is partially constricted with a silver clip (i.d. 0.22 mm). The right kidney and renal artery are left intact.

[5] = tested on: angiotensinogen and renin blood levels; conditions: normotensive rats; cited from earlier work
[6] = tested on: normotensive rat; experiment: Blood pressure in normotensive rat, oral; format: in vivo; conditions: same dose (300 mg) orally
[7] = in vivo; cited from earlier work
[8] = tested on: anesthetized normotensive rats; conditions: intravenous; cited from earlier work

**Q.** Which “IC50 (inhibit the contractile activity of angiotensin I by 50%)” value [1] does the source give for `CC(C)C[C@H](NC(=O)CCS)C(=O)O` [Example 4, N-(3-Mercaptopropanoyl)-L-leucine] here?
**A.** 2.0 µg/mL

**Q.** What about the IC50 [2] of the same compound?
**A.** 8.21 µM

**Q.** For `CN(CC(=O)O)C(=O)CCS` [Example 10, N-(3-Mercaptopropanoyl)sarcosine], which “IC50 (inhibit the contractile activity of angiotensin I by 50%)” value [1] is on record?
**A.** 0.94 µg/mL

**Q.** What about the IC50 [2] of the same compound?
**A.** 10.2 µM

**Q.** With `O=C(O)CNC(=O)CCS` [Example 15, N-(3-Mercaptopropanoyl)glycine] as the compound, how does the “% maximum inhibition of angiotensin I pressor response ± SE” value ([3]; 10 mg/kg oral) read?
**A.** 34.2 ± 6.7%

**Q.** What about the “% maximum inhibition of angiotensin I pressor response ± SE” value ([3]; 100 mg/kg oral) of the same compound?
**A.** 61.5 ± 1.2%

**Q.** What about the “IC50 (inhibit the contractile activity of angiotensin I by 50%)” value [1] of the same compound?
**A.** 4.5 µg/mL

**Q.** What about the IC50 [2] of the same compound?
**A.** 12.3 µM

**Q.** With `O=C(CCS)N[C@@H](Cc1ccccc1)C(=O)O` [Example 6, N-(3-Mercaptopropanoyl)-L-phenylalanine] as the compound, how does the “IC50 (inhibit the contractile activity of angiotensin I by 50%)” value [1] read?
**A.** 0.52 µg/mL

**Q.** What about the IC50 [2] of the same compound?
**A.** 3.39 µM

**Q.** Which results are given for `CC(S)C(=O)NCC(=O)O` (stereo not shown) [Example 51, N-2-Mercaptopropanoylglycine]?
**A.** Mean blood pressure ([4]; Rat #9, 1 h after drug, before drug 222): 206 mm Hg; Mean blood pressure ([4]; Rat #9, 2 h after drug, before drug 222): 173 mm Hg; Mean blood pressure ([4]; Rat #9, 3 h after drug, before drug 222): 157 mm Hg; Mean blood pressure ([4]; Rat #9, 4 h after drug, before drug 222): 184 mm Hg; Mean blood pressure ([4]; Rat #9, 5 h after drug, before drug 222): 206 mm Hg; Mean blood pressure ([4]; Rat #9, 6 h after drug, before drug 222): 199 mm Hg; Mean blood pressure ([4]; Rat #10, 1 h after drug, before drug 206): 203 mm Hg; Mean blood pressure ([4]; Rat #10, 2 h after drug, before drug 206): 190 mm Hg; Mean blood pressure ([4]; Rat #10, 3 h after drug, before drug 206): 189 mm Hg; Mean blood pressure ([4]; Rat #10, 4 h after drug, before drug 206): 199 mm Hg; Mean blood pressure ([4]; Rat #10, 5 h after drug, before drug 206): 195 mm Hg; Mean blood pressure ([4]; Rat #10, 6 h after drug, before drug 206): 197 mm Hg; angiotensinogen [5]: increases angiotensinogen; renin blood levels [5]: lowers renin blood levels; effects on blood pressure [6]: no significant effects on blood pressure; effects of blood pressure [7]: no noticeable effects of blood pressure; lowering of the blood pressure [8]: produced lowering of the blood pressure; % maximum inhibition of angiotensin I pressor response ± SE ([3]; 10 mg/kg oral): 29.9 ± 3.1%; % maximum inhibition of angiotensin I pressor response ± SE ([3]; 30 mg/kg oral): 52.9 ± 15.8%; % maximum inhibition of angiotensin I pressor response ± SE ([3]; 100 mg/kg oral): 64.9 ± 12.3%; IC50 (inhibit the contractile activity of angiotensin I by 50%) [1]: 2.0 µg/mL; IC50 [2]: 15.9 µM

**Q.** What does the source list for `C[C@H](NC(=O)CCS)C(=O)O` [Example 2, N-(3-mercaptopropanoyl)-L-alanine]?
**A.** IC50 (inhibit the contractile activity of angiotensin I by 50%) [1]: 0.94 µg/mL; IC50 [2]: 6.77 µM

**Q.** With `N=C(N)NCCC[C@H](NC(=O)CCS)C(=O)O` [Example 8, N^α -(3-Mercaptopropanoyl)-L-arginine] as the compound, how does the “IC50 (inhibit the contractile activity of angiotensin I by 50%)” value [1] read?
**A.** 0.9 µg/mL

**Q.** And the IC50 [2]?
**A.** 0.648 µM

**Q.** Which “IC50 (inhibit the contractile activity of angiotensin I by 50%)” value [1] does the source give for `N=C(N)NCCC[C@H](NC(=O)C(CS)Cc1ccccc1)C(=O)O` (stereo partly drawn) [Example 34, N^α -(3-mercapto-2-benzylpropanoyl)-L-arginine] here?
**A.** 4.1 µg/mL
